Experiment [1] relates to diastolic congestive heart failure patients. Put plainly: Echocardiographic evaluation of diastolic function in diastolic congestive heart failure patients, EPA-E-administered vs non-administered group (Example 2). Format: in vivo, human. To be noted: target cases E′ <8 cm/s (18 cases).
Experiment [2] has the same test system. The experiment is described as above. Format: in vivo, human. The protocol:
Diastolic congestive heart failure patients were targeted and divided into an EPA-E-administered group and an EPA-E-non-administered group. The EPA-E-administered group received the oral administration of EPA-E (trade name: Epadel; manufactured by Mochida Pharmaceutical Co., Ltd.) at a daily dose of 1800 mg for 6 months. The EPA-E-non-administered group received neither EPA nor its derivative during the test period. Another hypotensive or antilipidemic agent was not administered to any of these groups during the test period. The diastolic function of each patient was evaluated by echocardiography before the start of the test and after the completion of the test (6 months later). The evaluation items used were 1) a ratio of a peak filling velocity of early diastolic transmitral flow (a peak filling velocity of mitral inflow during early diastole: E) to a peak filling velocity of atrial systolic transmitral flow (a peak filling velocity of mitral inflow during atrial contraction: A) (E/A ratio), 2) the time required for the peak filling velocity of mitral inflow during early diastole to reach zero (deceleration time: DT), 3) an early diastolic mitral annulus velocity (E), and 4) an E/E′ ratio. The degree of improvement in these indexes was confirmed for each case corresponding to 1) an E/A ratio<1.0, 2) DT>250 msec, 3) E′<8 cm/s, or 4) an E/E′ ratio>15 as an index for cardiac diastolic dysfunction. The rate of change was determined as an average of % change from the value (defined as 100) before the start to the value after 6 months in each case.

Setting [3] is: printed as reduction (improvement), average of % change per case, before start to 6 months, 1800 mg/day oral.
Where [4] appears, read: printed as rise (improvement), average of % change per case, before start to 6 months, 1800 mg/day oral.

`CC/C=C\C/C=C\C/C=C\C/C=C\C/C=C\CCCC(=O)OCC` [EPA-E, icosapentaenoic acid ethyl ester]: in experiment [1] (EPA-E 1800 mg/day oral, 6 months), the “E′ (early diastolic mitral annular velocity), mean after 6 months” value is recorded as 4.539 cm/s. Besides, in experiment [1] (baseline before EPA-E 1800 mg/day oral), the “E′ (early diastolic mitral annular velocity), mean before start” value came to 4.483 cm/s. Moreover, in experiment [2] (setting [3]), the “DT, rate of change” value was found to be 10.9% reduction and the “E/E′ ratio, rate of change” value stood at 27.4% reduction. In experiment [2] (setting [4]), the “E/A ratio, rate of change” value is reported as 3.7% rise and the “E′, rate of change” value turned out to be 2.3% rise. For the same compound, the “DT (deceleration time), mean after 6 months” value in experiment [2] (target cases DT >250 msec (6 cases), EPA-E 1800 mg/day oral, 6 months) was 241.7 ms. In addition, the “DT (deceleration time), mean before start” value in experiment [2] (target cases DT >250 msec (6 cases), baseline before EPA-E 1800 mg/day oral) amounted to 271.3 ms. Also, in experiment [2] (target cases E/A ratio <1.0 (14 cases), EPA-E 1800 mg/day oral, 6 months), the “E/A ratio, mean after 6 months” value came to 0.692. Besides, the “E/A ratio, mean before start” value in experiment [2] (target cases E/A ratio <1.0 (14 cases), baseline before EPA-E 1800 mg/day oral) is 0.669. Besides, the “E/E′ ratio, mean after 6 months” value in experiment [2] (target cases E/E′ ratio >15 (4 cases), EPA-E 1800 mg/day oral, 6 months) is 13.14. Besides, the “E/E′ ratio, mean before start” value in experiment [2] (target cases E/E′ ratio >15 (4 cases), baseline before EPA-E 1800 mg/day oral) worked out at 18.09.

These data come from patent US20140039053A1, “THERAPEUTIC AGENT FOR DIASTOLIC CONGESTIVE HEART FAILURE” (Mochida Pharmaceutical Co., Ltd., priority 2011, published 2014).
